Data on one substance can be found in US10794932B2, “Biosensor for the detection of a biological target, and method for manufacturing the same” (The Governing Council of The University of Toronto, priority 2016, dated 2020).

The test system of one assay is rmTLR2. In words: Label-free TLR2 sensor, EIS detection of Pam3CSK4 (Example 7). The assay is classed as binding, mouse. The conditions noted are these: for delta Rct %: 20 minutes; for Rct: before immersion 7784. The method, then: (§1) TLR sensors were prepared using fresh, cleaned gold electrodes. The electrodes were immersed in a 2 mM 1-lipoic acid n-hydroxysuccinimide ester (LPA) ethanol solution for 48 hours at 277 K. The electrodes were then rinsed thoroughly using absolute ethanol and blown dry under nitrogen before incubation in 200 μg/ml rmTLR1, 200 μg/ml rmTLR2 and 200 μg/ml ‘rmTLR1 and 2’ mixture for 72 hours at 277 K. The rmTLR1 and 2 mixture was prepared by mixing 200 μg/ml rmTLR1 and 200 μg/ml rmTLR2 with a volume ratio of 1:1. The final concentration of each component was 100 μg/ml and the total concentration of the combined TLR protein content was 200 μg/ml. Following the supplier's recommended conditions, all TLRs were prepared in PBS buffer (pH˜7.4). The electrodes were rinsed with an excess volume of Milli-Q water and blown dry under nitrogen. An ethanolamine-tris buffer solution was prepared by dissolving 1.2 g of ethanolamine and 0.121 g of Tris base in 20 mL of water, the pH was adjusted to 8.4 using hydrochloric acid. TLR-immobilized electrodes were incubated in the ethanolamine solution for one hour at room temperature in order to block any remaining unreacted LPA amine sites. The fabricated sensors with immobilized, standalone rmTLR3, rmTLR4/MD-2 and rmTLR5, used for the selectivity test, were prepared using the same protocol described above.
(§2) Pam3CSK4 was dissolved in 10 mM HEPES aqueous buffer at pH˜7.4. The blocked rmTLR biosensors were incubated in Pam3CSK4 at various concentrations for 20 minutes. The electrodes were always washed thoroughly with same HEPES buffer (pH˜7.4) after the incubation.
(§3) All electrochemical measurements were carried out using a cell with a three-electrode configuration in an enclosed Faraday cage. CV and EIS measurements were completed using a CHI-660b potentiostat (CH Instruments, Austin, Tex.). rmTLR-modified gold electrodes and platinum (Pt) wire were used as the working electrode and the counter electrode, respectively. A reference electrode (Ag/AgCl/3.0M KCl) and a salt bridge, filled with an agar and 1M KNO3 aqueous solution, were inserted to minimize the diffusion of chloride ions into the electrolyte solution. The agar solution was prepared by dissolving 2.0 grams of agar and 10.1 g KNOB in 100 mL of water. The CV and EIS electrolyte was made in a 10 mM HEPES aqueous buffer at pH˜7.4, which consisted of a 5 mM K4Fe(CN)6/5 mM K3Fe(CN)6 as a redox couple with 1M of NaClO4 as the supporting electrolyte. For consistency, the electrochemical measurements were carried out with open-circuit potentials. EIS experiments were conducted in the frequency range of 100,000 to 0.1 Hz with an amplitude of 5 mV. The experimental EIS curves were evaluated to determine the film resistance using ZSimpWin 2.0 software.

The target of a further assay is T1, rmTLR1 (Mus musculus, UniProt Q9EPQ1).
T1 construct: purchased R&D Systems RDS1476TR050
T1 sequence (Q9EPQ1 26-795): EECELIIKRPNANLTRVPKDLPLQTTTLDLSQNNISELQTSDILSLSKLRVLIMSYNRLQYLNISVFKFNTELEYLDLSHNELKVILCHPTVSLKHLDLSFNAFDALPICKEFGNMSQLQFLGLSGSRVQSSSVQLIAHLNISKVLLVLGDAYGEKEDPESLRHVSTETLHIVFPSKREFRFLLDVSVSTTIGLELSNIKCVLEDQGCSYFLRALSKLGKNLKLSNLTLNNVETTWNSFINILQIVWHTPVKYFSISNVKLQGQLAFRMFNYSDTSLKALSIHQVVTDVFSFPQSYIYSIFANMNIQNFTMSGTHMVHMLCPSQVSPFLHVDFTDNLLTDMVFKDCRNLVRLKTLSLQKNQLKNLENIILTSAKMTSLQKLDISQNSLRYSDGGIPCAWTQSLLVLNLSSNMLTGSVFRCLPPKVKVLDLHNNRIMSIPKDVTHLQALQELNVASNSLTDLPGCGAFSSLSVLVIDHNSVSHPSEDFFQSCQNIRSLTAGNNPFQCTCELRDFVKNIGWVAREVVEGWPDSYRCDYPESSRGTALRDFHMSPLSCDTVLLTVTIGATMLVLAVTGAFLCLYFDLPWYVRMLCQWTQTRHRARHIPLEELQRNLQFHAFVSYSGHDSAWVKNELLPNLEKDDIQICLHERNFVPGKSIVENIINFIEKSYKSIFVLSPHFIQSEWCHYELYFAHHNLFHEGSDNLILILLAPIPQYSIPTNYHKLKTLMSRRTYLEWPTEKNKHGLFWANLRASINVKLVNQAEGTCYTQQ
Put plainly: Label-free TLR1 sensor, EIS detection of Pam3CSK4 (Example 7). The assay is classed as binding. To be noted: for delta Rct %: 20 minutes; for Rct: before immersion 10250. The method, then:
as §1, §2, §3

Where “and” joins values, the source holds several entries; their conditions need not be identical. Equal entries are not always repeated.

Turning to Pam3CSK4, the limit of detection in the assay on rmTLR2 and at rmTLR1 was 10 µM in each case. Moreover, the “delta Rct %” value with rmTLR2 (5 μM) was “not significant”; with rmTLR2 (10 μM) it was 32±6% and ~30%; in the assay on rmTLR2 (25 μM), 42±18%; with rmTLR2 (50 μM), 80±32%; on rmTLR1 (5 μM) it was “not significant”; on rmTLR1 (25 μM), 59±7%. Also, the “delta Rct %” value on rmTLR1 (50 μM) is recorded as 98±10%. The Rct in the assay on rmTLR2 (after 5 μM) is recorded as 7355 Ω · cm^2; with rmTLR2 (after 10 μM) it was 9446 Ω · cm^2; in the assay with rmTLR2 (after 25 μM), 12770 Ω · cm^2; in the assay on rmTLR2 (after 50 μM), 17610 Ω · cm^2; on rmTLR1 (after 5 μM), 10780 Ω · cm^2; at rmTLR1 (after 10 μM) it was 12760 Ω · cm^2. Besides, the values for the Rct at rmTLR1 (after 25 μM) and on rmTLR1 (after 50 μM) were 16840 Ω · cm^2 and 21010 Ω · cm^2, respectively.
